Values after ≈ are worked out from the molar mass of the structure shown. Read-outs that look alike come from different tables or passages of the source.
What was measured:
[1] = Solubility in ethanol and in MCT oil; assay type: physicochemical
Text: An alcohol-soluble species is a species that is insoluble in water and has a greater solubility in ethanol than in medium chain triglyceride (MCT) oils. […] Alcohol-soluble species are preferably pharmacologically active, more preferably are a drug or a supplement, and neither include nor are water. Thus, liquids and solids may exist that technically are soluble in alcohol, but because they also are soluble in water or more or equivalently soluble in MCT oils than in ethanol are not “alcohol-soluble species”.
Solubilized means that the alcohol-soluble species to be delivered is in the solution of the droplet. […] Thus, if either average particle diameters greater than 200 nm or precipitated crystals visible to the naked eye form, the alcohol-soluble species is not solubilized in the solution of the droplet. If an alcohol-soluble species is not solubilized in the solution, it is insoluble in the solution. In many respects, solubility may be thought of as a concentration dependent continuum. For example, the following descriptive terms may be used to express solubility of a solute in a solvent (grams solid/mL of solvent) at 25 degrees Celsius: […]

[2] = cited from earlier work

SMILES | solubility level in MCT oil ([1]; MCT oil) | solubility level in ethanol ([1]; ethanol) | solubility ([1]; ethanol, organic solvent or mixture, read-out: solubility in ethanol) | solubility ([1]; medium chain triglyceride (MCT) oil, oil or lipid, MCT oil, read-out: solubility in MCT oil) | time within which the remainder is metabolized from the blood ([2]; after introduction) | share metabolized from the blood ([2]; within the first hour of introduction)
C[C@]12CC[C@H](O)CC1=CC[C@@H]1[C@@H]2CC[C@]2(C)C(=O)CC[C@@H]12 [DHEA, dehydroepiandrosterone (3-beta-hydroxyandrosteron-5-en-17-one)] | sparingly soluble | freely soluble | ~150 mg/mL (≈ 520 mM) | ~10 mg/mL (≈ 34.7 mM) | – | –
C[C@]12CC[C@H]3[C@@H](CCC4=CC(=O)CC[C@@]43C)[C@@H]1CC[C@@H]2O [testosterone] | – | – | – | – | three | about 90%

From patent US20240335381A1, “Transdermal Microemulsion Delivery Systems for Alcohol-Soluble Species Including Nonderivatized Hormones” (Quicksilver Scientific, Inc., priority 2021, published 2024)
